{
  "source": "patent US5859037A",
  "about": "“Sulfonylurea-glitazone combinations for diabetes” (Warner-Lambert Company, priority 1997, dated 1999)",
  "tested_on": "lipid parameters (markers of lipid metabolism)",
  "test": "Fasting serum lipid profile in 52-week clinical study",
  "assay_type": "in vivo, patients",
  "conditions": "for Total Cholesterol, Change From Baseline, Median / Triglycerides, Change From Baseline, Mean / Triglycerides, Change From Baseline, Median / VLDL Cholesterol, Change From Baseline, Mean / VLDL Cholesterol, Change From Baseline, Median / Apo A1, Change From Baseline, Mean / Apo B, Change From Baseline, Mean / Free Fatty Acids, Change From Baseline, Mean / Free Fatty Acids, Change From Baseline, Median / HDL Cholesterol, Change From Baseline, Mean / HDL Cholesterol, Change From Baseline, Median / LDL Cholesterol, Change From Baseline, Mean / LDL Cholesterol, Change From Baseline, Median / LP(a), Change From Baseline, Mean / Total Cholesterol, Change From Baseline, Mean: ITT, Week 52; for LDL adjusted mean increase, difference from glyburide / total cholesterol adjusted mean increase, difference from glyburide: Month 12, p<0.05",
  "method": "After an initial screening visit, patients meeting the inclusion criteria entered a 4-week baseline phase (unblinded) in which they received 12 mg micronized glyburide (6 mg BID).\nSecondary efficacy parameters included markers of glycemic homeostasis (insulin and C-peptide) and markers of lipid metabolism (total cholesterol, total triglycerides, HDL, VLDL, LDL (measured), free fatty acids, Lp(a), Apo A1, and Apo B).\nEfficacy analysis was performed on 2 patient populations, intent-to-treat and completers. […] Patients withdrawing from the study before Week 52 were included in the analysis using the LOCF procedure; the last measurement on treatment was substituted for the missing Week 52 measurement. The intent-to-treat patient sample was the primary sample for assessing efficacy. Completers comprised patients in the intent-to-treat sample who completed Week 52.\nSummary statistics for baseline, follow-up (post-randomization), and change from baseline in secondary efficacy parameters were computed by treatment group and visit. For each patient, the baseline measurements for insulin, C-peptide, blood pressure, total cholesterol, triglycerides, LDL, HDL, VLDL, and free fatty acids were defined as the measurement at Week 0. In order to reduce variability, the baseline Apo A, Apo B, and Lp(a) levels were defined as the average of the respective measurements at Weeks -1 and 1. Similarly, the end-of-treatment Apo A, Apo B, and Lp(a) measurements were defined as the average of the respective measurements at Weeks 48 and 52. Averages from Weeks 20 and 24 were not carried forward for these special lipid parameters.\nFasting serum lipid profiles were determined at baseline and periodically through Week 52. Apo A1, Apo B, and Lp(a) were determined only at baseline, Month 6, and Month 12 as part of a special laboratory panel.",
  "key": {"[1]": {"conditions": "troglitazone 200 mg, or 200 mg/12 mg in combination"}, "[2]": {"conditions": "troglitazone 400 mg, or 400 mg/12 mg in combination"}, "[3]": {"conditions": "troglitazone 600 mg, or 600 mg/12 mg in combination"}},
  "data": [
    {"smiles": "Cc1c(C)c2c(c(C)c1O)CCC(C)(COc1ccc(CC3SC(=O)NC3=O)cc1)O2", "note": "(centres unmarked) [Troglitazone]", "values": [
      {"measurement": "Total Cholesterol, Change From Baseline, Median", "setting": "[1]", "result": 21.00, "unit": "mg/dL"},
      {"measurement": "Triglycerides, Change From Baseline, Mean", "setting": "[1]", "result": -35.77, "unit": "mg/dL"},
      {"measurement": "Triglycerides, Change From Baseline, Median", "setting": "[1]", "result": 3.50, "unit": "mg/dL"},
      {"measurement": "VLDL Cholesterol, Change From Baseline, Mean", "setting": "[1]", "result": 3.54, "unit": "mg/dL"},
      {"measurement": "VLDL Cholesterol, Change From Baseline, Median", "setting": "[1]", "result": 3.50, "unit": "mg/dL"},
      {"measurement": "Apo A1, Change From Baseline, Mean", "setting": "[2]", "result": -1.5, "unit": "mg/dL"},
      {"measurement": "Apo B, Change From Baseline, Mean", "setting": "[2]", "result": 3.4, "unit": "mg/dL"},
      {"measurement": "Free Fatty Acids, Change From Baseline, Mean", "setting": "[2]", "result": -0.17, "unit": "mEq/L"},
      {"measurement": "Free Fatty Acids, Change From Baseline, Median", "setting": "[2]", "result": -0.12, "unit": "mEq/L"},
      {"measurement": "HDL Cholesterol, Change From Baseline, Mean", "setting": "[2]", "result": 2.99, "unit": "mg/dL"},
      {"measurement": "HDL Cholesterol, Change From Baseline, Median", "setting": "[2]", "result": 3.00, "unit": "mg/dL"},
      {"measurement": "LDL Cholesterol, Change From Baseline, Mean", "setting": "[2]", "result": 12.09, "unit": "mg/dL"},
      {"measurement": "LDL Cholesterol, Change From Baseline, Median", "setting": "[2]", "result": 11.00, "unit": "mg/dL"},
      {"measurement": "LP(a), Change From Baseline, Mean", "setting": "[2]", "result": 10.0, "unit": "mg/dL"},
      {"measurement": "Total Cholesterol, Change From Baseline, Mean", "setting": "[2]", "result": 24.78, "unit": "mg/dL"},
      {"measurement": "Total Cholesterol, Change From Baseline, Median", "setting": "[2]", "result": 20.00, "unit": "mg/dL"},
      {"measurement": "Triglycerides, Change From Baseline, Mean", "setting": "[2]", "result": -3.86, "unit": "mg/dL"},
      {"measurement": "Triglycerides, Change From Baseline, Median", "setting": "[2]", "result": -2.00, "unit": "mg/dL"},
      {"measurement": "VLDL Cholesterol, Change From Baseline, Mean", "setting": "[2]", "result": 8.48, "unit": "mg/dL"},
      {"measurement": "VLDL Cholesterol, Change From Baseline, Median", "setting": "[2]", "result": 3.00, "unit": "mg/dL"},
      {"measurement": "Apo A1, Change From Baseline, Mean", "setting": "[3]", "result": -1.9, "unit": "mg/dL"},
      {"measurement": "Apo B, Change From Baseline, Mean", "setting": "[3]", "result": 3.1, "unit": "mg/dL"},
      {"measurement": "Free Fatty Acids, Change From Baseline, Mean", "setting": "[3]", "result": -0.19, "unit": "mEq/L"},
      {"measurement": "Free Fatty Acids, Change From Baseline, Median", "setting": "[3]", "result": -0.11, "unit": "mEq/L"},
      {"measurement": "HDL Cholesterol, Change From Baseline, Mean", "setting": "[3]", "result": 4.53, "unit": "mg/dL"},
      {"measurement": "HDL Cholesterol, Change From Baseline, Median", "setting": "[3]", "result": 3.00, "unit": "mg/dL"},
      {"measurement": "LDL Cholesterol, Change From Baseline, Mean", "setting": "[3]", "result": 16.21, "unit": "mg/dL"},
      {"measurement": "LDL Cholesterol, Change From Baseline, Median", "setting": "[3]", "result": 15.00, "unit": "mg/dL"},
      {"measurement": "LP(a), Change From Baseline, Mean", "setting": "[3]", "result": 9.1, "unit": "mg/dL"},
      {"measurement": "Total Cholesterol, Change From Baseline, Mean", "setting": "[3]", "result": 25.88, "unit": "mg/dL"},
      {"measurement": "Total Cholesterol, Change From Baseline, Median", "setting": "[3]", "result": 20.50, "unit": "mg/dL"},
      {"measurement": "Triglycerides, Change From Baseline, Mean", "setting": "[3]", "result": -9.59, "unit": "mg/dL"},
      {"measurement": "Triglycerides, Change From Baseline, Median", "setting": "[3]", "result": -24.00, "unit": "mg/dL"},
      {"measurement": "VLDL Cholesterol, Change From Baseline, Mean", "setting": "[3]", "result": -0.36, "unit": "mg/dL"},
      {"measurement": "VLDL Cholesterol, Change From Baseline, Median", "setting": "[3]", "result": -3.00, "unit": "mg/dL"},
      {"measurement": "LDL adjusted mean increase, difference from glyburide", "setting": "200 mg", "result": 23, "unit": "mg/dL"},
      {"measurement": "total cholesterol adjusted mean increase, difference from glyburide", "setting": "200 mg", "result": 25, "unit": "mg/dL"},
      {"measurement": "total cholesterol adjusted mean increase, difference from glyburide", "setting": "400 mg", "result": 26, "unit": "mg/dL"},
      {"measurement": "LDL adjusted mean increase, difference from glyburide", "setting": "600 mg", "result": 19, "unit": "mg/dL"},
      {"measurement": "total cholesterol adjusted mean increase, difference from glyburide", "setting": "600 mg", "result": 28, "unit": "mg/dL"},
      {"measurement": "atherogenic risk / lipid profile (result in words)", "setting": "mono- or combination therapy", "result": "do not negatively impact atherogenic risk"}
    ]}
  ]
}
